ChEMBL document CHEMBL5724914, “Linking interpersonal differences in gut microbiota composition and drug biotransformation activity” (2024)

How the values were obtained:
[1] = (§1) The drug is tested on WLS-370 corresponding to human gut metagenome with ENA study accession number: PRJEB37062 and ENA sample accession number: ERS12561793 for biotransformation under anaerobic condition. The drug concentrations were measured over 9 timepoints collected between 0 and 24 hours of incubation by liquid-chromatography-coupled mass spectrometry (LC–MS); details: 2 µM
[2] = as §1, with “Z-014” for “WLS-370”, “rat” for “human”, “ERS12561814” for “ERS12561793”; details: 2 µM
[3] = human gut metagenome, 24 h, 2 µM
[4] = as §1, with “Z-001” for “WLS-370”, “mouse” for “human”, “ERS12561801” for “ERS12561793”; details: 2 µM
[5] = as §1, with “Z-027” for “WLS-370”, “to” for “to human gut”, “ERS12561826” for “ERS12561793”; details: 2 µM
[6] = human gut metagenome, 24 h, 2 µM; remark: listed apart in the source
[7] = as §1, with “Z-009” for “WLS-370”, “pig” for “human”, “ERS12561809” for “ERS12561793”; details: 2 µM
[8] = as §1, with “Z-023” for “WLS-370”, “to” for “to human gut”, “ERS12561822” for “ERS12561793”; details: 2 µM
[9] = human gut metagenome, 24 h, 2 µM; remark: listed apart in the source
[10] = as §1, with “Z-030” for “WLS-370”, “mouse” for “human”, “ERS12561829” for “ERS12561793”; details: 2 µM
[11] = human gut metagenome, 24 h, 2 µM; remark: listed apart in the source
[12] = as §1, with “Z-016” for “WLS-370”, “mouse” for “human”, “ERS12561815” for “ERS12561793”; details: 2 µM
[13] = human gut metagenome, 24 h, 2 µM; remark: listed apart in the source
[14] = as §1, with “Z-004” for “WLS-370”, “to” for “to human gut”, “ERS12561804” for “ERS12561793”; details: 2 µM
[15] = as §1, with “Z-003” for “WLS-370”, “pig” for “human”, “ERS12561803” for “ERS12561793”; details: 2 µM
[16] = human gut metagenome, 24 h, 2 µM; remark: listed apart in the source
[17] = human gut metagenome, 24 h, 2 µM; remark: listed apart in the source
[18] = human gut metagenome, 24 h, 2 µM; remark: listed apart in the source
[19] = as §1, with “WLS-086” for “WLS-370”, “ERS12561752” for “ERS12561793”; details: 2 µM
[20] = human gut metagenome, 24 h, 2 µM; remark: listed apart in the source
Also: call rule not given here.

In the case of `C=CCN1CC[C@]23c4c5ccc(O)c4O[C@H]2C(=O)CC[C@@]3(O)[C@H]1C5` [NALOXONE], the “Bacterial Biotransformation” value [1] is reported as “Compound NOT metabolized”, the “Bacterial Biotransformation” value [2] is reported as “Compound NOT metabolized” and the “Bacterial Biotransformation” value [3] is reported as “Compound NOT metabolized”. For the same compound, the “Bacterial Biotransformation” value [4] was “Compound metabolized”, the “Bacterial Biotransformation” value [5] was “Compound NOT metabolized” and the “Bacterial Biotransformation” value [6] was “Compound NOT metabolized”. The “Bacterial Biotransformation” value [7] was “Compound NOT metabolized”, the “Bacterial Biotransformation” value [8] was “Compound NOT metabolized” and the “Bacterial Biotransformation” value [9] was “Compound NOT metabolized”. The “Bacterial Biotransformation” value [10] was “Compound NOT metabolized”, the “Bacterial Biotransformation” value [11] was “Compound NOT metabolized” and the “Bacterial Biotransformation” value [12] was “Compound NOT metabolized”. For the same compound, the “Bacterial Biotransformation” value [13] was “Compound NOT metabolized”, the “Bacterial Biotransformation” value [14] was “Compound NOT metabolized” and the “Bacterial Biotransformation” value [15] was “Compound metabolized”. The “Bacterial Biotransformation” value [16] was “Compound NOT metabolized”, the “Bacterial Biotransformation” value [17] was “Compound NOT metabolized” and the “Bacterial Biotransformation” value [18] was “Compound NOT metabolized”. For the same compound, the “Bacterial Biotransformation” value [19] was “Compound NOT metabolized” and the “Bacterial Biotransformation” value [20] was “Compound NOT metabolized”.
For `CC(C)(Oc1ccc(CCNC(=O)c2ccc(Cl)cc2)cc1)C(=O)O` [BEZAFIBRATE], the “Bacterial Biotransformation” value [1] was “Compound metabolized”, the “Bacterial Biotransformation” value [2] was “Compound NOT metabolized” and the “Bacterial Biotransformation” value [3] was “Compound metabolized”. For the same compound, the “Bacterial Biotransformation” value [4] was “Compound NOT metabolized”, the “Bacterial Biotransformation” value [5] was “Compound NOT metabolized” and the “Bacterial Biotransformation” value [6] was “Compound metabolized”. The “Bacterial Biotransformation” value [7] was “Compound metabolized”, the “Bacterial Biotransformation” value [8] was “Compound metabolized” and the “Bacterial Biotransformation” value [9] was “Compound metabolized”. The “Bacterial Biotransformation” value [10] was “Compound NOT metabolized”, the “Bacterial Biotransformation” value [11] was “Compound metabolized” and the “Bacterial Biotransformation” value [12] was “Compound metabolized”. For the same compound, the “Bacterial Biotransformation” value [13] was “Compound NOT metabolized”, the “Bacterial Biotransformation” value [14] was “Compound NOT metabolized” and the “Bacterial Biotransformation” value [15] was “Compound metabolized”. The “Bacterial Biotransformation” value [16] was “Compound metabolized”, the “Bacterial Biotransformation” value [17] was “Compound metabolized” and the “Bacterial Biotransformation” value [18] was “Compound metabolized”. For the same compound, the “Bacterial Biotransformation” value [19] was “Compound metabolized” and the “Bacterial Biotransformation” value [20] was “Compound metabolized”.
In the case of `Cc1nc(-c2ccc(OCC(C)C)c(C#N)c2)sc1C(=O)O` [FEBUXOSTAT], the “Bacterial Biotransformation” value [1] is reported as “Compound metabolized”, the “Bacterial Biotransformation” value [2] is reported as “Compound NOT metabolized” and the “Bacterial Biotransformation” value [3] is reported as “Compound metabolized”. For the same compound, the “Bacterial Biotransformation” value [4] was “Compound NOT metabolized”, the “Bacterial Biotransformation” value [5] was “Compound metabolized” and the “Bacterial Biotransformation” value [6] was “Compound metabolized”. For the same compound, the “Bacterial Biotransformation” value [7] was “Compound NOT metabolized”, the “Bacterial Biotransformation” value [8] was “Compound metabolized” and the “Bacterial Biotransformation” value [9] was “Compound metabolized”. For the same compound, the “Bacterial Biotransformation” value [10] was “Compound NOT metabolized”, the “Bacterial Biotransformation” value [11] was “Compound metabolized” and the “Bacterial Biotransformation” value [12] was “Compound metabolized”. The “Bacterial Biotransformation” value [13] was “Compound metabolized”, the “Bacterial Biotransformation” value [14] was “Compound NOT metabolized” and the “Bacterial Biotransformation” value [15] was “Compound metabolized”. For the same compound, the “Bacterial Biotransformation” value [16] was “Compound metabolized”, the “Bacterial Biotransformation” value [17] was “Compound metabolized” and the “Bacterial Biotransformation” value [18] was “Compound metabolized”. The “Bacterial Biotransformation” value [19] was “Compound metabolized” and the “Bacterial Biotransformation” value [20] was “Compound metabolized”.
In the case of `CCC(COC(=O)c1cc(OC)c(OC)c(OC)c1)(c1ccccc1)N(C)C.O=C(O)/C=C\C(=O)O` (stereo not given), the “Bacterial Biotransformation” value [1] is reported as “Compound NOT metabolized”, the “Bacterial Biotransformation” value [2] is reported as “Compound NOT metabolized” and the “Bacterial Biotransformation” value [3] is reported as “Compound NOT metabolized”. For the same compound, the “Bacterial Biotransformation” value [4] was “Compound NOT metabolized”, the “Bacterial Biotransformation” value [5] was “Compound NOT metabolized” and the “Bacterial Biotransformation” value [6] was “Compound NOT metabolized”. For the same compound, the “Bacterial Biotransformation” value [7] was “Compound metabolized”, the “Bacterial Biotransformation” value [8] was “Compound metabolized” and the “Bacterial Biotransformation” value [9] was “Compound NOT metabolized”. The “Bacterial Biotransformation” value [10] was “Compound NOT metabolized”, the “Bacterial Biotransformation” value [11] was “Compound metabolized” and the “Bacterial Biotransformation” value [12] was “Compound NOT metabolized”. The “Bacterial Biotransformation” value [13] was “Compound NOT metabolized”, the “Bacterial Biotransformation” value [14] was “Compound NOT metabolized” and the “Bacterial Biotransformation” value [15] was “Compound NOT metabolized”. The “Bacterial Biotransformation” value [16] was “Compound metabolized”, the “Bacterial Biotransformation” value [17] was “Compound metabolized” and the “Bacterial Biotransformation” value [18] was “Compound NOT metabolized”. For the same compound, the “Bacterial Biotransformation” value [19] was “Compound NOT metabolized” and the “Bacterial Biotransformation” value [20] was “Compound metabolized”.
For `CC(Oc1c(Cl)cccc1Cl)C1=NCCN1` (stereo not given) [LOFEXIDINE], the “Bacterial Biotransformation” value [1] was “Compound NOT metabolized”, the “Bacterial Biotransformation” value [2] was “Compound NOT metabolized” and the “Bacterial Biotransformation” value [3] was “Compound metabolized”. The “Bacterial Biotransformation” value [4] was “Compound NOT metabolized”, the “Bacterial Biotransformation” value [5] was “Compound NOT metabolized” and the “Bacterial Biotransformation” value [6] was “Compound NOT metabolized”. The “Bacterial Biotransformation” value [7] was “Compound NOT metabolized”, the “Bacterial Biotransformation” value [8] was “Compound NOT metabolized” and the “Bacterial Biotransformation” value [9] was “Compound metabolized”. The “Bacterial Biotransformation” value [10] was “Compound NOT metabolized”, the “Bacterial Biotransformation” value [11] was “Compound metabolized” and the “Bacterial Biotransformation” value [12] was “Compound NOT metabolized”. The “Bacterial Biotransformation” value [13] was “Compound NOT metabolized”, the “Bacterial Biotransformation” value [14] was “Compound NOT metabolized” and the “Bacterial Biotransformation” value [15] was “Compound NOT metabolized”. The “Bacterial Biotransformation” value [16] was “Compound metabolized”, the “Bacterial Biotransformation” value [17] was “Compound metabolized” and the “Bacterial Biotransformation” value [18] was “Compound NOT metabolized”. The “Bacterial Biotransformation” value [19] was “Compound metabolized” and the “Bacterial Biotransformation” value [20] was “Compound metabolized”.
In the case of `COC(=O)Nc1nc2ccc(C(=O)c3ccccc3)cc2[nH]1` [MEBENDAZOLE], the “Bacterial Biotransformation” value [1] is reported as “Compound metabolized”, the “Bacterial Biotransformation” value [2] is reported as “Compound NOT metabolized” and the “Bacterial Biotransformation” value [3] is reported as “Compound metabolized”. For the same compound, the “Bacterial Biotransformation” value [4] was “Compound metabolized”, the “Bacterial Biotransformation” value [5] was “Compound NOT metabolized” and the “Bacterial Biotransformation” value [6] was “Compound metabolized”. For the same compound, the “Bacterial Biotransformation” value [7] was “Compound metabolized”, the “Bacterial Biotransformation” value [8] was “Compound metabolized” and the “Bacterial Biotransformation” value [9] was “Compound metabolized”. For the same compound, the “Bacterial Biotransformation” value [10] was “Compound NOT metabolized”, the “Bacterial Biotransformation” value [11] was “Compound metabolized” and the “Bacterial Biotransformation” value [12] was “Compound metabolized”. The “Bacterial Biotransformation” value [13] was “Compound NOT metabolized”, the “Bacterial Biotransformation” value [14] was “Compound metabolized” and the “Bacterial Biotransformation” value [15] was “Compound metabolized”. For the same compound, the “Bacterial Biotransformation” value [16] was “Compound metabolized”, the “Bacterial Biotransformation” value [17] was “Compound metabolized” and the “Bacterial Biotransformation” value [18] was “Compound metabolized”. For the same compound, the “Bacterial Biotransformation” value [19] was “Compound metabolized” and the “Bacterial Biotransformation” value [20] was “Compound metabolized”.
With `CC(C)NCC(O)c1ccc(NS(C)(=O)=O)cc1` (stereo not given) [SOTALOL] the “Bacterial Biotransformation” value [1] was “Compound NOT metabolized”, the “Bacterial Biotransformation” value [2] was “Compound NOT metabolized” and the “Bacterial Biotransformation” value [3] was “Compound NOT metabolized”. For the same compound, the “Bacterial Biotransformation” value [4] was “Compound NOT metabolized”, the “Bacterial Biotransformation” value [5] was “Compound NOT metabolized” and the “Bacterial Biotransformation” value [6] was “Compound NOT metabolized”. The “Bacterial Biotransformation” value [7] was “Compound NOT metabolized”, the “Bacterial Biotransformation” value [8] was “Compound NOT metabolized” and the “Bacterial Biotransformation” value [9] was “Compound NOT metabolized”. For the same compound, the “Bacterial Biotransformation” value [10] was “Compound NOT metabolized”, the “Bacterial Biotransformation” value [11] was “Compound NOT metabolized” and the “Bacterial Biotransformation” value [12] was “Compound NOT metabolized”. For the same compound, the “Bacterial Biotransformation” value [13] was “Compound NOT metabolized”, the “Bacterial Biotransformation” value [14] was “Compound NOT metabolized” and the “Bacterial Biotransformation” value [15] was “Compound NOT metabolized”. The “Bacterial Biotransformation” value [16] was “Compound NOT metabolized”, the “Bacterial Biotransformation” value [17] was “Compound NOT metabolized” and the “Bacterial Biotransformation” value [18] was “Compound NOT metabolized”. The “Bacterial Biotransformation” value [19] was “Compound NOT metabolized” and the “Bacterial Biotransformation” value [20] was “Compound NOT metabolized”.
In the case of `CC(=O)OCC(=O)[C@@]1(O)[C@@H](C)C[C@H]2[C@@H]3CCC4=CC(=O)C=C[C@]4(C)[C@@]3(F)[C@@H](O)C[C@@]21C` [BETAMETHASONE ACETATE], the “Bacterial Biotransformation” value [1] is reported as “Compound metabolized”, the “Bacterial Biotransformation” value [2] is reported as “Compound NOT metabolized” and the “Bacterial Biotransformation” value [3] is reported as “Compound metabolized”. For the same compound, the “Bacterial Biotransformation” value [4] was “Compound metabolized”, the “Bacterial Biotransformation” value [5] was “Compound NOT metabolized” and the “Bacterial Biotransformation” value [6] was “Compound metabolized”. The “Bacterial Biotransformation” value [7] was “Compound metabolized”, the “Bacterial Biotransformation” value [8] was “Compound metabolized” and the “Bacterial Biotransformation” value [9] was “Compound metabolized”. The “Bacterial Biotransformation” value [10] was “Compound NOT metabolized”, the “Bacterial Biotransformation” value [11] was “Compound metabolized” and the “Bacterial Biotransformation” value [12] was “Compound metabolized”. The “Bacterial Biotransformation” value [13] was “Compound metabolized”, the “Bacterial Biotransformation” value [14] was “Compound NOT metabolized” and the “Bacterial Biotransformation” value [15] was “Compound metabolized”. For the same compound, the “Bacterial Biotransformation” value [16] was “Compound metabolized”, the “Bacterial Biotransformation” value [17] was “Compound metabolized” and the “Bacterial Biotransformation” value [18] was “Compound metabolized”. For the same compound, the “Bacterial Biotransformation” value [19] was “Compound metabolized” and the “Bacterial Biotransformation” value [20] was “Compound NOT metabolized”.
